For experiment [1], the system named is Target C. As to the kind of experiment: HiBiT protein abundance assay, Target C (K562 HiBiT knock-in cells). In kind it is cell-based, human. Particulars: 24 hours. Here is the method: • Promega Nano-Glo HiBiT Lytic Detection System (cat #N3030) • Corning 384-well TC-treated microplates (cat #3570) • Synthego Engineered Cells Knock-In Clones
Cells were maintained in IMDM with 10% FBS. Before the assay, cells were diluted with […] growth media (IMDM+1% FBS media) and were seeded in a 384-well plate at a density of 10000 cells/well (for each cell line listed in Table 6). Each compound was prepared as a 10-point 3-fold serial dilution in DMSO with the top dose at a final concentration of 10 μM in the well. Unmodified K562 cells were added at the previously specified density with DMSO to serve as an assay baseline and positive control (PC) and DMSO only with the respective modified cell lines was added to the negative control (NC) columns. Final DMSO concentration was kept at or below 0.25%. Treated cell plates were placed in an incubator at 37° C. with 5% CO2 for 24 hours. After 24 hours, 25 μL of Complete HiBit Lytic reagent was added to each well at room temperature (e.g. one plate requiring 10 mL Lytic Buffer, 100 μL LgBiT Protein, 200 μL Lytic Substrate), shaken for 5 minutes at 600 RPM, then left to sit for 10 minutes for signal to stabilize before reading on a Spark Cyto plate reader (Tecan) with a 500 ms measurement time.
To determine compound effects on protein abundance of each target in Table 6, the percent response for each respective cell line was calculated at each compound concentration as follows:
For the normalized response at each concentration, a four-parameter logistical regression was fit to the data and the response was interpolated at the 50% value to determine a concentration for protein abundance at 50% (IC50) the untreated control.
In general terms: The HiBiT peptide binds its large partner to form an active luciferase.

In experiment [2] the test system is MYB mRNA. In words: Splicing RT-qPCR assay, MYB canonical (CJ) and alternative (AJ) junction mRNA. Type of experiment: cell-based. Particulars: Homo sapiens, A673 or K562 cells, 24 hours; for IC50: decrease in canonical junction mRNA; for AC50: increase in alternative junction mRNA. The essentials:
(§1)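 Canonical and alternative junction mRNAs measured by cell-lysate one-step RT-qPCR, normalized to PPIA in A673 or GAPDH/GUSB in K562. Cells received compound for 24 h at 37 °C, 5% CO2, 11-point 3-fold series from 10 uM final top dose, DMSO at most 0.25%.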
For orientation: Quantitative PCR measures a nucleic acid by following its amplification.

Experiment [3] relates to HTT mRNA. As to the kind of experiment: Splicing RT-qPCR assay, HTT canonical (CJ) and alternative (AJ) junction mRNA. In kind it is cell-based. The note with it: Homo sapiens, A673 or K562 cells, 24 hours; for IC50: decrease in canonical junction mRNA; for AC50: increase in alternative junction mRNA. The essentials: as §1

Structures are written as SMILES.

Regarding `Cc1cn2cc(NC(=O)c3ccc([C@@]45CCNCC4C5)c4nccnc34)cc(F)c2n1` (stereo in doubt) [Compound 248, 8-{3-azabicyclo[4.1.0]heptan-6-yl}-N-{8-fluoro-2-methylimidazo[1,2-a]pyridin-6-yl}quinoxaline-5-carboxamide 2,2,2-trifluoroacetate], the concentration for half-maximal inhibition (IC50) was over 10000 nM in experiment [1], 100 to 1000 nM in experiment [2] and 1000 to 10000 nM in experiment [3]. Besides, the figures for the AC50 in experiment [2] and in experiment [3] were 100 to 1000 nM and over 10000 nM, respectively.

For `Cc1cn2cc(NC(=O)c3ccc(N4CCNCC4)c4nccnc34)cc(F)c2n1` [Compound 111], the values for the IC50 in experiment [1], in experiment [2] and in experiment [3] were 1000 to 10000 nM, 100 to 1000 nM and 1000 to 10000 nM, respectively. Besides, the AC50 lay within 100 to 1000 nM in experiment [2] and 1000 to 10000 nM in experiment [3].

For the molecule `Cc1cn2nc(NC(=O)c3ccc(C4CCNCC4)c4ccnnc34)cc(C)c2n1` [Compound 113], the IC50 in experiment [1], in experiment [2] and in experiment [3] was 1000 to 10000 nM in each case. The AC50 in experiment [2] lay within 100 to 1000 nM; in experiment [3], 1000 to 10000 nM.

For the molecule `Cn1cc2ccc(NC(=O)c3ccc(N4CCNCC4)c4ccnnc34)cc2n1` [Compound 115], the IC50 in experiment [1], in experiment [2] and in experiment [3] was over 10000 nM each time. Also, the AC50 in experiment [2] and in experiment [3] was over 10000 nM throughout.

Regarding `Cn1cc2c(F)cc(NC(=O)c3ccc(N4CCNCC4)c4ccnnc34)cc2n1` [Compound 116], the IC50 in experiment [1], in experiment [2] and in experiment [3] was over 10000 nM throughout. For the same molecule, the AC50 in experiment [2] and in experiment [3] was over 10000 nM in each case.

On to `Cc1nc2c(F)cc(NC(=O)c3ccc(N4CCNCC4)c4ccnnc34)cc2s1` [Compound 118], for which the IC50 in experiment [1], in experiment [2] and in experiment [3] was 100 to 1000 nM each time. Besides, the AC50 in experiment [2] and in experiment [3] was 100 to 1000 nM throughout.

For the molecule `Cc1cn2cc(NC(=O)c3ccc(N4CCNCC4)c4ccnnc34)c(C)cc2n1` [Compound 119], the IC50 in experiment [1], in experiment [2] and in experiment [3] was 1000 to 10000 nM each time. In addition, the AC50 in experiment [2] and in experiment [3] was 1000 to 10000 nM throughout.

Consider `Cc1cn2cc(NC(=O)c3ccc(N4CCNCC4)c4ccnnc34)ncc2n1` [Compound 120], for which the IC50 in experiment [1] is over 10000 nM; in experiment [2], 100 to 1000 nM; in experiment [3], over 10000 nM. Besides, the AC50 in experiment [2] is 100 to 1000 nM; in experiment [3] it was over 10000 nM.

Consider `CNC1CCN(c2ccc(C(=O)Nc3cc(F)c4nc(C)cn4c3)c3nc(OCCOC)ccc23)C1` (centres unmarked) [Compound 234], for which the IC50 in experiment [1] lay in the range of 1000 to 10000 nM; in experiment [2], 100 to 1000 nM; in experiment [3], 1000 to 10000 nM. Also, the results for the AC50 in experiment [2] and in experiment [3] were 100 to 1000 nM and 1000 to 10000 nM, respectively.

`CN[C@@H]1CCN(c2ccc(C(=O)Nc3cc(F)c4nc(C)cn4c3)c3nnccc23)C1` [Compound 238, (R)—N-(8-fluoro-2-methylimidazo[1,2-a]pyridin-6-yl)-5-(3-(methylamino)pyrrolidin-1-yl)cinnoline-8-carboxamide]: the IC50 is 1000 to 10000 nM in experiment [1], under 100 nM in experiment [2] and 1000 to 10000 nM in experiment [3]. The values for the AC50 in experiment [2] and in experiment [3] were under 100 nM and 1000 to 10000 nM, respectively.

In the case of `CN[C@H]1CCN(c2ccc(C(=O)Nc3cc(F)c4nc(C)cn4c3)c3nnccc23)C1` [Compound 239, (S)—N-(8-fluoro-2-methylimidazo[1,2-a]pyridin-6-yl)-5-(3-(methylamino)pyrrolidin-1-yl)cinnoline-8-carboxamide], the IC50 in experiment [1] is 1000 to 10000 nM; in experiment [2], under 100 nM; in experiment [3], 1000 to 10000 nM. Also, the AC50 in experiment [2] lay in the range of 100 to 1000 nM; in experiment [3], 1000 to 10000 nM.

As for `Cc1cn2cc(NC(=O)c3ccc(C4=CCNCC4)c4nccnc34)cc(F)c2n1` [Compound 240, N-{8-fluoro-2-methylimidazo[1,2-a]pyridin-6-yl}-8-(1,2,3,6-tetrahydropyridin-4-yl)quinoxaline-5-carboxamide], the IC50 was 100 to 1000 nM in experiment [1], under 100 nM in experiment [2] and under 100 nM in experiment [3]. Also, the AC50 in experiment [2] and in experiment [3] was 100 to 1000 nM each time.

Turning to `Cc1cn2cc(NC(=O)c3ccc(N4CC[C@@H](N(C)C)C4)c4nccnc34)cc(F)c2n1` [Compound 242, 8-[(3R)-3-(dimethylamino)pyrrolidin-1-yl]-N-{8-fluoro-2-methylimidazo[1,2-a]pyridin-6-yl}quinoxaline-5-carboxamide], the IC50 is over 10000 nM in experiment [1], 100 to 1000 nM in experiment [2] and over 10000 nM in experiment [3]. Further, the AC50 was 1000 to 10000 nM in experiment [2] and over 10000 nM in experiment [3].

Turning to `COc1cnc2c(N3CC[C@@H](N(C)C)C3)ccc(C(=O)Nc3cc(F)c4nc(C)cn4c3)c2n1` [Compound 244, 8-[(3R)-3-(dimethylamino)pyrrolidin-1-yl]-N-{8-fluoro-2-methylimidazo[1,2-a]pyridin-6-yl}-3-methoxyquinoxaline-5-carboxamide], the IC50 was 100 to 1000 nM in experiment [1], under 100 nM in experiment [2] and 100 to 1000 nM in experiment [3]. The AC50 was under 100 nM in experiment [2] and 100 to 1000 nM in experiment [3].

In the case of `Cc1cn2cc(NC(=O)c3ccc([C@H]4CCNC4)c4nccnc34)cc(F)c2n1` [Compound 246], the IC50 was in the range of 1000 to 10000 nM in experiment [1], 100 to 1000 nM in experiment [2] and 1000 to 10000 nM in experiment [3]. The concentration at half-maximal activity (AC50) was in the range of 100 to 1000 nM in experiment [2] and 1000 to 10000 nM in experiment [3].

For the molecule `Cc1cn2cc(NC(=O)c3ccc(N4CCN[C@@H](C(C)C)C4)c4nccnc34)cc(F)c2n1` [Compound 250, N-{8-fluoro-2-methylimidazo[1,2-a]pyridin-6-yl}-8-[(3S)-3-isopropylpiperazin-1-yl]quinoxaline-5-carboxamide], the IC50 in experiment [1] was over 10000 nM; in experiment [2], 100 to 1000 nM; in experiment [3] it was over 10000 nM. Also, the figures for the AC50 in experiment [2] and in experiment [3] were 1000 to 10000 nM and over 10000 nM, respectively.

Regarding `Cc1cn2cc(NC(=O)c3ccc(N4CCN[C@@H](C5CC5)C4)c4nccnc34)cc(F)c2n1` [Compound 252, 8-[(3S)-3-cyclopropylpiperazin-1-yl]-N-{8-fluoro-2-methylimidazo[1,2-a]pyridin-6-yl}quinoxaline-5-carboxamide], the IC50 in experiment [1] is 1000 to 10000 nM; in experiment [2], 100 to 1000 nM; in experiment [3] it was over 10000 nM. Further, the figures for the AC50 in experiment [2] and in experiment [3] were 100 to 1000 nM and over 10000 nM, respectively.

On to `Cc1cn2cc(NC(=O)c3ccc(N4CCN[C@H](C5CC5)C4)c4nccnc34)cc(F)c2n1` [Compound 253, 8-[(3R)-3-cyclopropylpiperazin-1-yl]-N-{8-fluoro-2-methylimidazo[1,2-a]pyridin-6-yl}quinoxaline-5-carboxamide], for which the IC50 in experiment [1] is 1000 to 10000 nM; in experiment [2], under 100 nM; in experiment [3] it was 1000 to 10000 nM. Further, the AC50 was under 100 nM in experiment [2] and 1000 to 10000 nM in experiment [3].

Regarding `Cc1cn2cc(NC(=O)c3ccc(N4CCN5CCOC[C@@H]5C4)c4nccnc34)cc(F)c2n1` [Compound 255, (S)—N-(8-fluoro-2-methylimidazo[1,2-a]pyridin-6-yl)-8-(hexahydropyrazino[2,1-c][1,4]oxazin-8(1H)-yl)quinoxaline-5-carboxamide], the IC50 in experiment [1], in experiment [2] and in experiment [3] was 100 to 1000 nM each time. The AC50 in experiment [2] and in experiment [3] was 100 to 1000 nM in each case.

With `Cc1cn2cc(NC(=O)c3ccc(N4CCN5CCOC[C@H]5C4)c4nccnc34)cc(F)c2n1` [Compound 256, (R)—N-(8-fluoro-2-methylimidazo[1,2-a]pyridin-6-yl)-8-(hexahydropyrazino[2,1-c][1,4]oxazin-8(1H)-yl)quinoxaline-5-carboxamide], the IC50 in experiment [1], in experiment [2] and in experiment [3] was 1000 to 10000 nM in each case. Further, the AC50 in experiment [2] and in experiment [3] was 1000 to 10000 nM each time.

Take `Cc1cn2cc(NC(=O)c3ccc(N4CC(C)NC(C)C4)c4nc(C)c(C)nc34)cc(F)c2n1` (centres unmarked) [Compound 257]: the values for the IC50 in experiment [1], in experiment [2] and in experiment [3] were 1000 to 10000 nM, 100 to 1000 nM and 1000 to 10000 nM, respectively. Also, the AC50 in experiment [2] and in experiment [3] was 1000 to 10000 nM throughout.

Consider `Cc1cn2cc(NC(=O)c3ccc(N4CCC(NC5CC5)CC4)c4nccnc34)cc(F)c2n1` [Compound 258, 8-(4-(cyclopropylamino)piperidin-1-yl)-N-(8-fluoro-2-methylimidazo[1,2-a]pyridin-6-yl)quinoxaline-5-carboxamide], for which the IC50 in experiment [1], in experiment [2] and in experiment [3] was 100 to 1000 nM in each case. Besides, the half-maximal activity concentration (AC50) in experiment [2] and in experiment [3] was 100 to 1000 nM throughout.

The IC50 is the point on the concentration scale where inhibition reaches its midpoint. One may read the AC50 as the midpoint of the concentration-response curve, whichever way the signal moves. A higher AC50 goes with activity only at high concentration.
